Results from publication PMC6271077, “Synthesis, Anticancer and Antibacterial Activity of Salinomycin N-Benzyl Amides” (Molecules, 2014).
Values after ≈ are worked out from the molar mass of the structure shown.

Each compound was assayed on M. tuberculosis isoniazid-resistant strain (spec. 210) (assay: Tuberculostatic activity, test-tube dilution). Conditions: Mycobacterium tuberculosis, read-out: MIC M. tuberculosis Isoniazid-Resistant Strain.
Type: cell-based

Point of comparison: `CC[C@@H](C(=O)[C@@H](C)[C@@H](O)[C@H](C)[C@@H]1O[C@@H]([C@@H](CC)C(=O)O)CC[C@@H]1C)[C@H]1O[C@]2(C=C[C@@H](O)[C@]3(CC[C@@](C)([C@H]4CC[C@](O)(CC)[C@H](C)O4)O3)O2)[C@H](C)C[C@@H]1C` [SAL, Salinomycin], MIC 50 µg/mL (≈ 66.6 µM). Against it:
- CC[C@H](C(=O)NCc1cccc(Br)c1)C1CC[C@H](C)C([C@@H](C)[C@H](O)[C@H](C)C(=O)[C@H](CC)C2O[C@]3(C=C[C@@H](O)C4(CC[C@@](C)(C5CC[C@](O)(CC)[C@H](C)O5)O4)O3)[C@H](C)C[C@@H]2C)O1 (some centres unmarked) [Br-m] — higher, > 100 µg/mL
- CC[C@H](C(=O)NCc1ccccc1Br)C1CC[C@H](C)C([C@@H](C)[C@H](O)[C@H](C)C(=O)[C@H](CC)C2O[C@]3(C=C[C@@H](O)C4(CC[C@@](C)(C5CC[C@](O)(CC)[C@H](C)O5)O4)O3)[C@H](C)C[C@@H]2C)O1 (some centres unmarked) [Br-o] — higher, > 100 µg/mL
- CC[C@H](C(=O)NCc1ccc(Br)cc1)C1CC[C@H](C)C([C@@H](C)[C@H](O)[C@H](C)C(=O)[C@H](CC)C2O[C@]3(C=C[C@@H](O)C4(CC[C@@](C)(C5CC[C@](O)(CC)[C@H](C)O5)O4)O3)[C@H](C)C[C@@H]2C)O1 (some centres unmarked) [Br-p] — 2-fold higher, 100 µg/mL (≈ 109 µM)
- CC[C@H](C(=O)NCc1cccc(Cl)c1)C1CC[C@H](C)C([C@@H](C)[C@H](O)[C@H](C)C(=O)[C@H](CC)C2O[C@]3(C=C[C@@H](O)C4(CC[C@@](C)(C5CC[C@](O)(CC)[C@H](C)O5)O4)O3)[C@H](C)C[C@@H]2C)O1 (some centres unmarked) [Cl-m] — higher, > 100 µg/mL
- CC[C@H](C(=O)NCc1ccccc1Cl)C1CC[C@H](C)C([C@@H](C)[C@H](O)[C@H](C)C(=O)[C@H](CC)C2O[C@]3(C=C[C@@H](O)C4(CC[C@@](C)(C5CC[C@](O)(CC)[C@H](C)O5)O4)O3)[C@H](C)C[C@@H]2C)O1 (some centres unmarked) [Cl-o] — higher, > 100 µg/mL
- CC[C@H](C(=O)NCc1ccc(Cl)cc1)C1CC[C@H](C)C([C@@H](C)[C@H](O)[C@H](C)C(=O)[C@H](CC)C2O[C@]3(C=C[C@@H](O)C4(CC[C@@](C)(C5CC[C@](O)(CC)[C@H](C)O5)O4)O3)[C@H](C)C[C@@H]2C)O1 (some centres unmarked) [Cl-p, p-chlorobenzyl amide of salinomycin] — higher, > 100 µg/mL
- CCC(C(=O)NCc1cccc(F)c1)C1CCC(C)C(C(C)C(O)C(C)C(=O)C(CC)C2OC3(C=CC(O)C4(CCC(C)(C5CCC(O)(CC)C(C)O5)O4)O3)C(C)CC2C)O1 (centres unmarked) [F-m] — higher, > 100 µg/mL
- CCC(C(=O)NCc1ccccc1F)C1CCC(C)C(C(C)C(O)C(C)C(=O)C(CC)C2OC3(C=CC(O)C4(CCC(C)(C5CCC(O)(CC)C(C)O5)O4)O3)C(C)CC2C)O1 (centres unmarked) [F-o] — 2-fold higher, 100 µg/mL (≈ 117 µM)
- CC[C@H](C(=O)NCc1ccc(F)cc1)C1CC[C@H](C)C([C@@H](C)[C@H](O)[C@H](C)C(=O)[C@H](CC)C2O[C@]3(C=C[C@@H](O)C4(CC[C@@](C)(C5CC[C@](O)(CC)[C@H](C)O5)O4)O3)[C@H](C)C[C@@H]2C)O1 (some centres unmarked) [F-p] — the same, 50 µg/mL (≈ 58.3 µM)
- NNC(=O)c1ccncc1 [Isoniazid, isoniazid, reference compound] — 8-fold lower, 6.25 µg/mL (≈ 45.6 µM)
- CC[C@H](C(=O)NCc1cccc([N+](=O)[O-])c1)C1CC[C@H](C)C([C@@H](C)[C@H](O)[C@H](C)C(=O)[C@H](CC)C2O[C@]3(C=C[C@@H](O)C4(CC[C@@](C)(C5CC[C@](O)(CC)[C@H](C)O5)O4)O3)[C@H](C)C[C@@H]2C)O1 (some centres unmarked) [NO2-m] — higher, > 100 µg/mL
- CCC(C(=O)NCc1ccccc1[N+](=O)[O-])C1CCC(C)C(C(C)C(O)C(C)C(=O)C(CC)C2OC3(C=CC(O)C4(CCC(C)(C5CCC(O)(CC)C(C)O5)O4)O3)C(C)CC2C)O1 (centres unmarked) [NO2-o] — 2-fold higher, 100 µg/mL (≈ 113 µM)
- CC[C@H](C(=O)NCc1ccc([N+](=O)[O-])cc1)C1CC[C@H](C)C([C@@H](C)[C@H](O)[C@H](C)C(=O)[C@H](CC)C2O[C@]3(C=C[C@@H](O)C4(CC[C@@](C)(C5CC[C@](O)(CC)[C@H](C)O5)O4)O3)[C@H](C)C[C@@H]2C)O1 (some centres unmarked) [NO2-p] — the same, 50 µg/mL (≈ 56.5 µM)
